The values below come from paper PMC6950567, “Evaluation of Marine Diindolinonepyrane in Vitro and in Vivo: Permeability Characterization in Caco-2 Cells Monolayer and Pharmacokinetic Properties in Beagle Dogs” (Marine Drugs, 2019).

Entries after “also recorded” stand apart in the source; their conditions may differ. Read-outs that look alike come from different tables or passages of the source.

On the set-up of data set [1]: method as in PMID 24216275. The following applies: rats, cited from earlier work.
For another data set, the target named is T1, P-gp (Homo sapiens, UniProt P08183).
T1 construct: host or cells: Caco-2
T1 sequence (P08183 whole entry): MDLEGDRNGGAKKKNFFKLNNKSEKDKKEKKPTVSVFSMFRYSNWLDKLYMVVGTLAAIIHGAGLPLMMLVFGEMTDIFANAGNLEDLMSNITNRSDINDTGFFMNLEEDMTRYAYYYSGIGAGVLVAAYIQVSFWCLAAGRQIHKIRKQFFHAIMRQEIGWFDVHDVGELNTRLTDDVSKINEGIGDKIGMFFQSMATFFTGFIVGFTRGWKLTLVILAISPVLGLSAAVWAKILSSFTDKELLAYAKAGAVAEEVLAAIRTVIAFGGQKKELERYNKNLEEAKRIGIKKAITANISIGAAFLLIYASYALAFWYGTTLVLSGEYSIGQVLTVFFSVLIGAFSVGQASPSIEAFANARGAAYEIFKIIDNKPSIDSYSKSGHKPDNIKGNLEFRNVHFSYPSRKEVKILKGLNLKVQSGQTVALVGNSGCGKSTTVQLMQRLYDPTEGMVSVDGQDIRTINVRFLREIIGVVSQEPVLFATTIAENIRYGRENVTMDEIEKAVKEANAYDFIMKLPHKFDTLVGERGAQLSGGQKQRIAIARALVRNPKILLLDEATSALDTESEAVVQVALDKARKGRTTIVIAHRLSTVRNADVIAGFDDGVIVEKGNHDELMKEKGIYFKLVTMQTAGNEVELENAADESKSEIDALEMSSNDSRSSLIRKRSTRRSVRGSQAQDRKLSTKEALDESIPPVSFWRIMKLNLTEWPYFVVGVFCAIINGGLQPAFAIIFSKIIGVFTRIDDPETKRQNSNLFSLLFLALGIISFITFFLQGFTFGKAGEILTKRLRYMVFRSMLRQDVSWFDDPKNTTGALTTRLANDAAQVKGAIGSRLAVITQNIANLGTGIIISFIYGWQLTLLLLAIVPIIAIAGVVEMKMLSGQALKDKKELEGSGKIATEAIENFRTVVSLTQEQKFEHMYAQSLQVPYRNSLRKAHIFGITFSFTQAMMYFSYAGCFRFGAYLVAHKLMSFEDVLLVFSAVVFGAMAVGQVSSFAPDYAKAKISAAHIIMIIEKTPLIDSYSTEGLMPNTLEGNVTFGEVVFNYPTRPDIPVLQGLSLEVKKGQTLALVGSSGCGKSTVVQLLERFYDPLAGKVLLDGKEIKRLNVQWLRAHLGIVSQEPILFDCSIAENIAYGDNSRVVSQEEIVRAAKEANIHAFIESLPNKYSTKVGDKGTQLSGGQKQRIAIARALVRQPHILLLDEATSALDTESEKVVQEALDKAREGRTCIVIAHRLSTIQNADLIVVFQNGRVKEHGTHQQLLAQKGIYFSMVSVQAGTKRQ
Briefly: P-gp substrate assessment from Caco-2 bidirectional transport. In kind it is in vitro ADME. The following applies: suggested from Caco-2 transport with 0.1% BSA. The procedure: The Caco-2 cell model was established successfully, and the transwell plate was then rinsed with HBSS solution three times and cultured in an incubator at 37 °C for 30 min to remove the interfering substances on the cell surface. For transfer in the AP→BL direction, 0.075 mL drug solution was added to the AP side as the supply pool, and 0.25 mL HBSS solution was added to the BL side as the receiving pool. In the BL→AP direction, 0.25 mL compound solution was added to the BL side as the supply pool, and 0.075 mL HBSS solution was added to the AP side as the receiving pool. The transwell plate was then cultured in an incubator at 37 °C for 2 h. Samples on the AP side and BL side were collected, respectively. Then, acetonitrile containing an internal label was added to each upper chamber to lyse transport membranes. The total recovery was calculated by collecting the amount of lead compound absorbed on the membrane surface or accumulated in the cell. Finally, the concentration of each sample was calculated as the ratio of the peak area between the compound and the inner target through mass spectrum analysis (API 4000). […] Vr is the volume in the receiving hole (mL); A is the transport membrane area; and C0 is the compound initiation concentration (µM). […]

A short description of data set [2]: Tissue distribution after intravenous injection in beagle dogs. It is filed as in vivo. The settings on record: 7.5 mg/kg. How it is done:
Moreover, another three dogs were fasted for 24 h with water ad libidum for the tissue distribution study. 2,5-BHPA was administered by intravenous injection at 7.5 mg/kg. Subsequently, their brain, stomach (emptied of gastric contents), heart, large intestine (emptied of gastric contents), liver, kidneys, spleen, urine, lungs, spermary, small intestine (emptied of gastric contents), feces, muscle, bile of dogs were removed at 60 min after compound administration. The tissues were flushed with normal saline, dried, weighed, and homogenized in proper methanol (methanol:sample = 5:1, V/V). The tissue samples were centrifuged at 5000× g for 15 min at RT, and the supernatants were filtered with a 0.22 µm disposable syringe filter for HPLC detection.

`CC(C)=CCCC(C)=CCCC1(C)Oc2c(c(O)cc3c2CN(CCCC(C(=O)O)N2Cc4c(cc(O)c5c4OC(C)(CCC=C(C)CCC=C(C)C)C(O)C5)C2=O)C3=O)CC1O` (stereo not drawn) [2,5-BHPA, 2,5-Bis-[8-(4,8-dimethyl-nona-3,7-dienyl)-5,7-dihydroxy-8-methyl-3-keto-1,2,7,8-tertahydro-6H-pyran[a]isoindol-2-yl]-pentanoic acid]: the half-life in data set [1] (intravenous (IV) bolus) was ~ 22 min. In data set [1], the “detection in the brain” value is recorded as “not the case in rats” and the “tissue with the highest concentration level (liver)” value is “same as in rats”. Also, the “substrate of P-gp” value on P-gp is “not a substrate of P-gp”. For the same compound, in data set [2] (1 h after intravenous injection), the “concentration in different organs” value is “concentration in the liver and bile was higher compared with other organs; also recorded: Lung, kidney, spleen, stomach, excrement, and urine contained moderate amounts; also recorded: highest 2,5-BHPA concentration level was detected in the liver”. The “detection in the brain” value in data set [2] (60 min after intravenous injection) is on record as “detected in the brain”.
